pIC50: −log10 of the molar value. Active and inactive are the calls of the source. No cut-off for these calls is given here.

By pIC50 is commonly meant −log10 of the IC50, conventionally taken in molar units. A low value points to a high IC50. A word on the inhibition: it is the change of the read-out against control, counted positive when it falls. Read a high inhibition as strong suppression.

T1 sequence (Q02880 whole entry): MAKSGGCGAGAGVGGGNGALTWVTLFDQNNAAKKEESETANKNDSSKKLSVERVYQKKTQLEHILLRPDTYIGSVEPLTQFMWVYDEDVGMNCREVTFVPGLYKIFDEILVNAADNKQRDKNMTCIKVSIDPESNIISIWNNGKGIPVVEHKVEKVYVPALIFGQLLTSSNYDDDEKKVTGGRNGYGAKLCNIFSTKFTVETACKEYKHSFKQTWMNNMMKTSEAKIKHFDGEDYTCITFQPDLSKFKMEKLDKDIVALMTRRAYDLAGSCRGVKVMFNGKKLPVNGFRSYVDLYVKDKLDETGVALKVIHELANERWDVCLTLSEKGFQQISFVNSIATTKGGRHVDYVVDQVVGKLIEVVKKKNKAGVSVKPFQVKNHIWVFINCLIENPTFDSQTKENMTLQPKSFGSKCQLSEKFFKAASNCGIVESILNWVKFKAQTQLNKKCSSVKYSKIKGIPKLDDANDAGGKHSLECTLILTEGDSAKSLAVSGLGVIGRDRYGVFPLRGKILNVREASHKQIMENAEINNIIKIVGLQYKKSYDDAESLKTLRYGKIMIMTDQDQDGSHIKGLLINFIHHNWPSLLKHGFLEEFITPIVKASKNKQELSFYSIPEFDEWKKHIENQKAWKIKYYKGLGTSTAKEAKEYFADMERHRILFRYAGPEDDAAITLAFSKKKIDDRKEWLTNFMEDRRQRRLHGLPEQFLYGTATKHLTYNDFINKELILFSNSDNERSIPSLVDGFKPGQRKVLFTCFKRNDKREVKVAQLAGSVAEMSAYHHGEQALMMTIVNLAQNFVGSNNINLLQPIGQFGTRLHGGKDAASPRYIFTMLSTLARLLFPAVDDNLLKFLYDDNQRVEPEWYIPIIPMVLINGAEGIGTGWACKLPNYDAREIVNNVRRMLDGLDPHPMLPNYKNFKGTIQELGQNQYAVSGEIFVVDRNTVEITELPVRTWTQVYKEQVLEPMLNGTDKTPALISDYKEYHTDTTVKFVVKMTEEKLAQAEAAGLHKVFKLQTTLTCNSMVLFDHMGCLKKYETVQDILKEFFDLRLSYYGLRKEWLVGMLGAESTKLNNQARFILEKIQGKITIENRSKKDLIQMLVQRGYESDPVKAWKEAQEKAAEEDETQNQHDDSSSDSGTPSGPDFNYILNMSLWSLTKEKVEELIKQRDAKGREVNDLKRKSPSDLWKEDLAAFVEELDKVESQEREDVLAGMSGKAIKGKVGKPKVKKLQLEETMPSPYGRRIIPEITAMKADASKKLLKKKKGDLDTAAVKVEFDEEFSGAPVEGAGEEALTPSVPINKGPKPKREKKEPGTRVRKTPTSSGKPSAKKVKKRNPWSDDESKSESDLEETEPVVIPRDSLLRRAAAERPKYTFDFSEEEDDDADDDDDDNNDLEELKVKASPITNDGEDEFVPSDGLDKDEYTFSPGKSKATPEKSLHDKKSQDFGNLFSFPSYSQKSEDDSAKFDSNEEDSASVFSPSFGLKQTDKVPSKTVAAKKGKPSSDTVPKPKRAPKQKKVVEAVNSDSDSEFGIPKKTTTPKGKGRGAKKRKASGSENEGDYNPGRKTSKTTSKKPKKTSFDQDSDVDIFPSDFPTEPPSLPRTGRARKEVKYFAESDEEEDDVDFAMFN

The first experiment has as its system MCF7. Briefly: Cell cycle arrest in human MCF7 cells assessed as accumulation at G2 phase at IC50 after 24 hrs by propidium iodide staining-based flow cytometric analysis. Format: functional.
Settings: not given
(A flow cytometer gives signals particle by particle.)
For `COc1cc(C2=N/C(=C\c3cc(Br)cc(Br)c3OC(C)=O)C(=O)NN2C(N)=S)cc(OC)c1OC`, the result was Active.

In the next experiment the test system is MCF7. Nature of the experiment: Down regulation of Bcl-2 level in human MCF7 cells at IC50 incubated for 24 hrs by ELISA. Format: functional, cell-based.
Settings: not given
In general terms: In an ELISA, binding on a coated surface is turned into a signal by an enzyme label.
Regarding `COc1cc(C2=N/C(=C\c3cc(Br)cc(Br)c3OC(C)=O)C(=O)n3c(C)nc(=S)n32)cc(OC)c1OC`, the outcome was Active.
For `COc1cc(C2=N/C(=C\c3cc(Br)cc(Br)c3OC(C)=O)C(=O)NN2C(N)=S)cc(OC)c1OC`, the result was Active.

Another experiment has as its system MCF7. Briefly: Potency index, ratio of podophyllotoxin IC50 to compound IC50 for human MCF7 cells. The class given is functional.
Settings: not given
On to `COc1cc(C2=N/C(=C\c3cc(Br)cc(Br)c3OC(C)=O)C(=O)NN2C(N)=S)cc(OC)c1OC`, for which the “Ratio IC50” value was found to be 6.

Another experiment addresses T1, DNA topoisomerase 2-beta (Homo sapiens, UniProt Q02880). Briefly: Inhibition of human DNA topoisomerase 2beta after 2 hrs by ELISA.
Settings: not given
As for `COc1cc(C2=N/C(=C\c3cc(Br)cc(Br)c3OC(C)=O)C(=O)n3c(C)nc(=S)n32)cc(OC)c1OC`, the pIC50 is 6.96.
In turn, `COc1cc(C2=N/C(=C\c3cc(Br)cc(Br)c3OC(C)=O)C(=O)NN2C(N)=S)cc(OC)c1OC` gave a pIC50 of 7.50.

Another experiment deals with MCF7. Nature of the experiment: Induction of apoptosis in human MCF7 cells assessed as necrotic cells at IC50 after 24 hrs by annexin V/FITC-propidium iodide staining-based flow cytometric method (reference value: 0.53%). The class given is functional.
Settings: not given
Regarding `COc1cc(C2=N/C(=C\c3cc(Br)cc(Br)c3OC(C)=O)C(=O)n3c(C)nc(=S)n32)cc(OC)c1OC`, the Activity is listed as 1.73%.
In the case of `COc1cc(C2=N/C(=C\c3cc(Br)cc(Br)c3OC(C)=O)C(=O)NN2C(N)=S)cc(OC)c1OC`, the Activity is listed as 3.66%.

The test system of a further experiment is MCF7. Briefly: Potency index, ratio of ratio of compound effect to podophyllotoxin efect for induction of apoptosis in human MCF7 cells. Format: functional.
Settings: not given
Consider `COc1cc(C2=N/C(=C\c3cc(Br)cc(Br)c3OC(C)=O)C(=O)NN2C(N)=S)cc(OC)c1OC`, for which the Ratio was found to be 1.25.

For a further experiment, the system named is MCF7. Briefly: Induction of apoptosis in human MCF7 cells assessed as early apoptotic cells at IC50 after 24 hrs by annexin V/FITC-propidium iodide staining-based flow cytometric method (reference value: 0.72%). Format: functional.
Settings: not given
With `COc1cc(C2=N/C(=C\c3cc(Br)cc(Br)c3OC(C)=O)C(=O)n3c(C)nc(=S)n32)cc(OC)c1OC`, the Activity is reported as 3.38%.
Turning to `COc1cc(C2=N/C(=C\c3cc(Br)cc(Br)c3OC(C)=O)C(=O)NN2C(N)=S)cc(OC)c1OC`, the Activity is listed as 4.78%.

Another experiment concerns MCF7. Nature of the experiment: Upregulation of Bax level in human MCF7 cells at IC50 incubated for 24 hrs by ELISA relative to control. Format: functional.
Settings: not given
With `COc1cc(C2=N/C(=C\c3cc(Br)cc(Br)c3OC(C)=O)C(=O)n3c(C)nc(=S)n32)cc(OC)c1OC`, the “fold change (FC)” value amounted to 0.9.
Turning to `COc1cc(C2=N/C(=C\c3cc(Br)cc(Br)c3OC(C)=O)C(=O)NN2C(N)=S)cc(OC)c1OC`, the “fold change (FC)” value is listed as 3.2.

For the next experiment, the system named is MCF7. Nature of the experiment: Cell cycle arrest in human MCF7 cells assessed as decrease in accumulation at G1 phase at IC50 after 24 hrs by propidium iodide staining-based flow cytometric analysis. The class given is functional.
Settings: not given
In the case of `COc1cc(C2=N/C(=C\c3cc(Br)cc(Br)c3OC(C)=O)C(=O)NN2C(N)=S)cc(OC)c1OC`, the outcome was Active.

The next experiment has as its system MCF7. Nature of the experiment: Upregulation of caspase3/7 level in human MCF7 cells at IC50 incubated for 24 hrs by green flow cytometric analysis relative to control. Format: functional.
Settings: not given
For `COc1cc(C2=N/C(=C\c3cc(Br)cc(Br)c3OC(C)=O)C(=O)n3c(C)nc(=S)n32)cc(OC)c1OC`, the “fold change (FC)” value was 31.3.
As for `COc1cc(C2=N/C(=C\c3cc(Br)cc(Br)c3OC(C)=O)C(=O)NN2C(N)=S)cc(OC)c1OC`, the “fold change (FC)” value was found to be 21.6.

The target in another experiment is T1, DNA topoisomerase 2-beta. Nature of the experiment: Potency index, ratio of etopside IC50 to compound IC50 for topoisomerase 2beta in human MCF7 cells. The class given is cell-based.
Settings: not given
Consider `COc1cc(C2=N/C(=C\c3cc(Br)cc(Br)c3OC(C)=O)C(=O)NN2C(N)=S)cc(OC)c1OC`, for which the Ratio IC50 amounted to 2.2.

In a further experiment the test system is MCF7. Briefly: Induction of apoptosis in human MCF7 cells assessed as viable cells at IC50 after 24 hrs by annexin V/FITC-propidium iodide staining-based flow cytometric method (reference value: 96.57%). Format: functional.
Settings: not given
As to `COc1cc(C2=N/C(=C\c3cc(Br)cc(Br)c3OC(C)=O)C(=O)n3c(C)nc(=S)n32)cc(OC)c1OC`, the Activity came out at 88.4%.
With `COc1cc(C2=N/C(=C\c3cc(Br)cc(Br)c3OC(C)=O)C(=O)NN2C(N)=S)cc(OC)c1OC`, the Activity is recorded as 78.79%.

A further experiment concerns MCF7. Nature of the experiment: Induction of apoptosis in human MCF7 cells assessed as late apoptotic cells at IC50 after 24 hrs by annexin V/FITC-propidium iodide staining-based flow cytometric method (reference value: 0.34%). The class given is functional.
Settings: not given
On to `COc1cc(C2=N/C(=C\c3cc(Br)cc(Br)c3OC(C)=O)C(=O)n3c(C)nc(=S)n32)cc(OC)c1OC`, for which the Activity is reported as 4.53%.
For `COc1cc(C2=N/C(=C\c3cc(Br)cc(Br)c3OC(C)=O)C(=O)NN2C(N)=S)cc(OC)c1OC`, the Activity came to 10.88%.

For another experiment, the system named is MCF7. Nature of the experiment: Upregulation of p53 level in human MCF7 cells at IC50 incubated for 24 hrs by ELISA relative to podophyllotoxin. Format: functional.
Settings: not given
Turning to `COc1cc(C2=N/C(=C\c3cc(Br)cc(Br)c3OC(C)=O)C(=O)NN2C(N)=S)cc(OC)c1OC`, the “fold change (FC)” value is reported as 1.7.

A further experiment has as its system MCF7. Briefly: Upregulation of p53 level in human MCF7 cells at IC50 incubated for 24 hrs by ELISA relative to control. The class given is functional.
Settings: not given
Turning to `COc1cc(C2=N/C(=C\c3cc(Br)cc(Br)c3OC(C)=O)C(=O)n3c(C)nc(=S)n32)cc(OC)c1OC`, the “fold change (FC)” value came out at 5.1.
As for `COc1cc(C2=N/C(=C\c3cc(Br)cc(Br)c3OC(C)=O)C(=O)NN2C(N)=S)cc(OC)c1OC`, the “fold change (FC)” value was found to be 8.1.

For a further experiment, the system named is MCF7. Nature of the experiment: Inhibition of tubulin beta polymerization in human MCF7 cells at IC50 after 18 to 24 hrs by spectrophotometric method relative to control. Format: cell-based.
Settings: not given
With `COc1cc(C2=N/C(=C\c3cc(Br)cc(Br)c3OC(C)=O)C(=O)n3c(C)nc(=S)n32)cc(OC)c1OC`, the inhibition amounted to 88.2%.
In the case of `COc1cc(C2=N/C(=C\c3cc(Br)cc(Br)c3OC(C)=O)C(=O)NN2C(N)=S)cc(OC)c1OC`, the inhibition came to 44.4%.

The test system of a further experiment is MCF7. Briefly: Antiproliferative activity against human MCF7 cells after 48 hrs by MTT assay. The class given is functional, cell-based. As to conditions: MCF7, 48 h. A general note: Tetrazolium assays rely on reduction of a dye to a coloured formazan, in cell work by metabolically active cells.
`COc1cc(C2=N/C(=C\c3cc(Br)cc(Br)c3OC(C)=O)C(=O)n3c(C)nc(=S)n32)cc(OC)c1OC` gave a pIC50 of 5.51.
`COc1cc(C2=N/C(=C\c3cc(Br)cc(Br)c3OC(C)=O)C(=O)NN2C(N)=S)cc(OC)c1OC` gave a pIC50 of 6.44.

System in the next experiment: not listed separately
Nature of the experiment: Antiproliferative activity against human Hs 371.T cells after 48 hrs by MTT assay. Format: cell-based.
Settings: not given
`COc1cc(C2=N/C(=C\c3cc(Br)cc(Br)c3OC(C)=O)C(=O)n3c(C)nc(=S)n32)cc(OC)c1OC` had a pIC50 of 4.23.
`COc1cc(C2=N/C(=C\c3cc(Br)cc(Br)c3OC(C)=O)C(=O)NN2C(N)=S)cc(OC)c1OC` gave a pIC50 of 4.21.

The next experiment relates to MCF7. Briefly: Upregulation of caspase3/7 level in human MCF7 cells at IC50 assessed as caspase 3/7 green fluorescence incubated for 24 hrs by green flow cytometric analysis (reference value: 0.49%). Format: functional.
Settings: not given
For `COc1cc(C2=N/C(=C\c3cc(Br)cc(Br)c3OC(C)=O)C(=O)n3c(C)nc(=S)n32)cc(OC)c1OC`, the Activity was 7.58%.
Take `COc1cc(C2=N/C(=C\c3cc(Br)cc(Br)c3OC(C)=O)C(=O)NN2C(N)=S)cc(OC)c1OC`: the Activity turned out to be 8.69%.

Another experiment has as its system MCF7. Briefly: Increase in Bax/Bcl-2 ratio in human MCF7 cells at IC50 incubated for 24 hrs by ELISA. The class given is functional, cell-based.
Settings: not given
On to `COc1cc(C2=N/C(=C\c3cc(Br)cc(Br)c3OC(C)=O)C(=O)NN2C(N)=S)cc(OC)c1OC`, for which the result was Active.

The test system of the next experiment is MCF7. Briefly: Cell cycle arrest in human MCF7 cells assessed as increase in accumulation at G0 phase at IC50 after 24 hrs by propidium iodide staining-based flow cytometric analysis. Format: functional.
Settings: not given
With `COc1cc(C2=N/C(=C\c3cc(Br)cc(Br)c3OC(C)=O)C(=O)NN2C(N)=S)cc(OC)c1OC`, the outcome was Active.
